Drawing on patent US20090155209A1, “NOVEL MACROCYCLIC INHIBITORS OF HEPATITIS C VIRUS REPLICATION” (priority 2007, published 2009), this text covers IC50 and EC50 for 24 compounds.

Assay [1] has as its target T1, NS3-NS4 (Hepatitis C virus genotype 1a, UniProt P27958). The assay can be described thus: NS3-NS4 activity, IC50 (Example 37, Table 8). It is filed as biochemical.
The target in assay [2] is T1, NS3-NS4. The assay is described as follows: cell-based. To be noted: EC50, NS3-NS4 activity.

Some results are limits rather than exact numbers.

T1 sequence (P27958 1027-1657): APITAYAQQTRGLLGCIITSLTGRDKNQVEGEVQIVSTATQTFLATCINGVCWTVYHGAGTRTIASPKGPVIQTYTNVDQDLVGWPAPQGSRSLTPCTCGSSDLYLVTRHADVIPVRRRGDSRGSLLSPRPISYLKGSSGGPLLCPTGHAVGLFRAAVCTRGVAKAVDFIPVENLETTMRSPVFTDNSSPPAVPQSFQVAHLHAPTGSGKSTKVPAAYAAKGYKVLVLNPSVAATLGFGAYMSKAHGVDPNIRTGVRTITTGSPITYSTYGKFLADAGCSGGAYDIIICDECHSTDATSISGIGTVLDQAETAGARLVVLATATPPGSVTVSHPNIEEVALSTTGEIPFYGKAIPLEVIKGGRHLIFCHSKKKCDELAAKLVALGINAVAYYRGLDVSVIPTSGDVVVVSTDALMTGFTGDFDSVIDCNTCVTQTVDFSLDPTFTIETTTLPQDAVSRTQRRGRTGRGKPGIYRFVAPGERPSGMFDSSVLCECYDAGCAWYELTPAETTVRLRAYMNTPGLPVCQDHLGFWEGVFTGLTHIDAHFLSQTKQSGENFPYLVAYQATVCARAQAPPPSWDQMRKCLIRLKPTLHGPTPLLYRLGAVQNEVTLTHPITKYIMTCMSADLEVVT
T1 sequence (P27958 1658-1711): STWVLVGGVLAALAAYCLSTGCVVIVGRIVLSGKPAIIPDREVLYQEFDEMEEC

With `CC(=O)O[C@@H]1C[C@H]2C(=O)N[C@]3(C(=O)NS(=O)(=O)C4CC4)C[C@H]3/C=C\CCCCC[C@H](Nc3ncc(-c4ccccc4)s3)C(=O)N2C1` [Compound 203, (2R,6S,13aS,14aR,16aS,Z)-14a-(cyclopropylsulfonylcarbamoyl)-5,16-dioxo-6-(5-phenylthiazol-2-ylamino)-1,2,3,5,6,7,8,9,10,11,13a,14,14a,15,16,16a-hexadecahydrocyclopropa[e]pyrrolo[1,2-a][1,4]diazacyclopentadecin-2-yl acetate], the IC50 against NS3-NS4 [1] was below 100 nM. Besides, on NS3-NS4 [2], the EC50 lay in the range of 1000 to 10000 nM.

On NS3-NS4 [1], `O=C1N[C@]2(C(=O)NS(=O)(=O)C3CC3)C[C@H]2/C=C\CCCCC[C@H](NC(=O)N2CCOCC2)C(=O)N2C[C@H](OC(=O)N3Cc4cccc(F)c4C3)C[C@@H]12` [Compound 414] gave an IC50 below 100 nM. The compound also had an EC50 on NS3-NS4 [2] of 100 to 1000 nM.

For the compound `CC(C)CONC(=O)[C@@]12C[C@H]1/C=C\CCCCC[C@H](NC(=O)OC(C)(C)C)C(=O)N1C[C@H](OC(=O)N3Cc4cccc(F)c4C3)C[C@H]1C(=O)N2` [Compound 719], on NS3-NS4 [1], the IC50 was below 100 nM. On NS3-NS4 [2], this compound gave an EC50 below 100 nM.

At NS3-NS4 [1], `CN(C(=O)N[C@H]1CCCCC/C=C\[C@@H]2C[C@@]2(C(=O)NS(=O)(=O)c2c(F)cccc2F)NC(=O)[C@@H]2C[C@@H](OC(=O)N3Cc4cccc(F)c4C3)CN2C1=O)C(C)(C)C` [Compound 362] came in with a half-inhibitory concentration (IC50) below 100 nM. At NS3-NS4 [2], the EC50 is 100 to 1000 nM.

In turn, `O=C1N[C@]2(C(=O)NS(=O)(=O)C3CC3)C[C@H]2/C=C\CCCCC[C@H](NC(=O)N2Cc3ccccc3C2)C(=O)N2C[C@H](OC(=O)N3Cc4cccc(F)c4C3)C[C@@H]12` [Compound 422] showed an IC50 against NS3-NS4 [1] below 100 nM. At NS3-NS4 [2], this compound showed an EC50 of 100 to 1000 nM.

In the case of `Cc1ccc(C)c(ONC(=O)[C@@]23C[C@H]2CCCCCCC[C@H](NC(=O)OC(C)(C)C)C(=O)N2C[C@H](OC(=O)N4Cc5cccc(F)c5C4)C[C@H]2C(=O)N3)c1` [Compound 806], at NS3-NS4 [1], the IC50 is below 100 nM. The EC50 on NS3-NS4 [2] was in the range of 1000 to 10000 nM.

Take `CN(C(=O)N[C@H]1CCCCC/C=C\[C@@H]2C[C@@]2(C(=O)NS(=O)(=O)C2CC2)NC(=O)[C@@H]2C[C@@H](OC(=O)N3Cc4cccc(F)c4C3)CN2C1=O)C1CCCC1` [Compound 425]: at NS3-NS4 [1], the IC50 was below 100 nM. The compound also returned a concentration for a half-maximal effect (EC50) at NS3-NS4 [2] below 100 nM.

On to `CCN(C(=O)N[C@H]1CCCCC/C=C\[C@@H]2C[C@@]2(C(=O)NS(=O)(=O)C2CC2)NC(=O)[C@@H]2C[C@@H](OC(=O)N3Cc4cccc(F)c4C3)CN2C1=O)C(C)(C)C` [Compound 423], for which the IC50 against NS3-NS4 [1] was below 100 nM. In addition, the EC50 on NS3-NS4 [2] is below 100 nM.

Consider `CC(C)ONC(=O)[C@@]12C[C@H]1/C=C\CCCCC[C@H](NC(=O)OC(C)(C)C)C(=O)N1C[C@H](OC(=O)N3Cc4cccc(F)c4C3)C[C@H]1C(=O)N2` [Compound 718], for which the IC50 at NS3-NS4 [1] was below 100 nM. The EC50 at NS3-NS4 [2] is below 100 nM.

In the case of `CC(C)(C)OC(=O)N[C@H]1CCCCCCC[C@@H]2C[C@@]2(C(=O)NS(=O)(=O)c2ccccc2Cl)NC(=O)[C@@H]2C[C@@H](OC(=O)N3Cc4cccc(F)c4C3)CN2C1=O` [Compound 603], the IC50 against NS3-NS4 [1] was below 100 nM. This compound returned an EC50 on NS3-NS4 [2] below 100 nM.

Take `O=C1N[C@]2(C(=O)NS(=O)(=O)C3CC3)C[C@H]2/C=C\CCCCC[C@H](Nc2nc(-c3cccc(F)c3)cs2)C(=O)N2C[C@H](OC(=O)N3Cc4cccc(F)c4C3)C[C@@H]12` [Compound 215]: at NS3-NS4 [1], the IC50 is below 100 nM. On NS3-NS4 [2], this compound registered an EC50 below 100 nM.

The compound `CCc1cnc(N[C@H]2CCCCC/C=C\[C@@H]3C[C@@]3(C(=O)NS(=O)(=O)C3CC3)NC(=O)[C@@H]3C[C@@H](OC(=O)N4Cc5cccc(F)c5C4)CN3C2=O)s1` [Compound 230] registered an IC50 against NS3-NS4 [1] below 100 nM. Moreover, at NS3-NS4 [2], the EC50 was below 100 nM.

`O=C1N[C@]2(C(=O)NS(=O)(=O)C3CC3)C[C@H]2/C=C\CCCCC[C@H](Nc2nc(-c3ccc(F)c(F)c3)cs2)C(=O)N2C[C@H](OC(=O)N3Cc4cccc(F)c4C3)C[C@@H]12` [Compound 223] showed an IC50 against NS3-NS4 [1] below 100 nM. Also, on NS3-NS4 [2], the EC50 is below 100 nM.

On NS3-NS4 [1], `CC(C)(C)OC(=O)N[C@H]1CCCCC/C=C\[C@@H]2C[C@@]2(C(=O)NS(=O)(=O)c2cc(Cl)sc2Cl)NC(=O)[C@@H]2C[C@@H](OC(=O)N3CCc4ccccc4C3)CN2C1=O` [Compound 357] returned an IC50 of 100 to 1000 nM. The EC50 at NS3-NS4 [2] was in the range of 100 to 1000 nM.

On NS3-NS4 [1], `CC(C)(C)OC(=O)N[C@H]1CCCCC/C=C\[C@@H]2C[C@@]2(C(=O)NS(=O)(=O)c2cc(Cl)cs2)NC(=O)[C@@H]2C[C@@H](OC(=O)N3Cc4cccc(F)c4C3)CN2C1=O` [Compound 536] registered an IC50 below 100 nM. On NS3-NS4 [2], this compound displayed an EC50 below 100 nM.

As for `CC(C)(C)OC(=O)N[C@H]1CCCCC/C=C\[C@@H]2C[C@@]2(C(=O)NS(=O)(=O)c2cccc(C(F)(F)F)c2)NC(=O)[C@@H]2C[C@@H](OC(=O)N3Cc4cccc(F)c4C3)CN2C1=O` [Compound 308], at NS3-NS4 [1], the IC50 is below 100 nM. Moreover, on NS3-NS4 [2], the EC50 was below 100 nM.

The compound `O=C(N[C@H]1CCCCC/C=C\[C@@H]2C[C@@]2(C(=O)NS(=O)(=O)C2CC2)NC(=O)[C@@H]2C[C@@H](OC(=O)N3Cc4cccc(F)c4C3)CN2C1=O)OC1CCOC1` (stereo partly drawn) [Compound 412] gave an IC50 at NS3-NS4 [1] below 100 nM. Moreover, at NS3-NS4 [2], the EC50 is below 100 nM.

For the compound `CN(Cc1ccccc1)C(=O)N[C@H]1CCCCC/C=C\[C@@H]2C[C@@]2(C(=O)NS(=O)(=O)C2CC2)NC(=O)[C@@H]2C[C@@H](OC(=O)N3Cc4cccc(F)c4C3)CN2C1=O` [Compound 421], the IC50 against NS3-NS4 [1] is below 100 nM. This compound gave an EC50 at NS3-NS4 [2] below 100 nM.

For `CC(C)(C)OC(=O)N[C@H]1CCCCC/C=C\[C@@H]2C[C@@]2(C(=O)NS(=O)(=O)c2cc3ccccc3o2)NC(=O)[C@@H]2C[C@@H](OC(=O)N3Cc4cccc(F)c4C3)CN2C1=O` [Compound 542], the IC50 against NS3-NS4 [1] is below 100 nM. The same compound registered an EC50 on NS3-NS4 [2] of 100 to 1000 nM.

Turning to `CC(C)(C)OC(=O)N[C@H]1CCCCC/C=C\C2CC2(C(=O)NOc2ccccc2)NC(=O)[C@@H]2C[C@@H](OC(=O)N3Cc4cccc(F)c4C3)CN2C1=O` (stereo in doubt) [Compound 101, (2R,6S,13aS,14aR,16aS,Z)-6-(tert-butoxycarbonylamino)-5,16-dioxo-14a-(phenoxycarbamoyl)-1,2,3,5,6,7,8,9,10,11,13a,14,14a,15,16,16a-hexadecahydrocyclopropa[e]pyrrolo[1,2-a][1,4]diazacyclopentadecin-2-yl 4-fluoroisoindoline-2-carboxylate], the IC50 at NS3-NS4 [1] was below 100 nM. The compound further displayed a 50% effective concentration (EC50) on NS3-NS4 [2] below 100 nM.

Take `O=C(N[C@H]1CCCCC/C=C\[C@@H]2C[C@@]2(C(=O)NS(=O)(=O)C2CC2)NC(=O)[C@@H]2C[C@@H](OC(=O)N3Cc4ccc(F)cc4C3)CN2C1=O)OC1CCOCC1` [Compound 410]: the IC50 at NS3-NS4 [1] was below 100 nM. The EC50 at NS3-NS4 [2] fell in the range of 100 to 1000 nM.

Consider `O=C1N[C@]2(C(=O)NS(=O)(=O)C3CC3)C[C@H]2/C=C\CCCCC[C@H](Nc2nc(-c3ccc(F)cn3)cs2)C(=O)N2C[C@H](OC(=O)N3Cc4cccc(F)c4C3)C[C@@H]12` [Compound 225], for which, on NS3-NS4 [1], the IC50 is below 100 nM. At NS3-NS4 [2], the EC50 was below 100 nM.

Compound `CC(C)(C)OC(=O)N[C@H]1CCCCCCC[C@@H]2C[C@@]2(C(=O)NOc2cccc(F)c2)NC(=O)[C@@H]2C[C@@H](OC(=O)N3Cc4cccc(F)c4C3)CN2C1=O` [Compound 810] came in with an IC50 on NS3-NS4 [1] below 100 nM. For the same compound, the EC50 at NS3-NS4 [2] was 1000 to 10000 nM.

In turn, `Cc1ccc(S(=O)(=O)NC(=O)[C@@]23C[C@H]2/C=C\CCCCC[C@H](NC(=O)OC(C)(C)C)C(=O)N2C[C@H](OC(=O)N4Cc5cccc(F)c5C4)C[C@H]2C(=O)N3)cc1Cl` [Compound 312] returned an IC50 against NS3-NS4 [1] below 100 nM. At NS3-NS4 [2], this compound gave an EC50 of 100 to 1000 nM.
